Experimental data reported in US20230340011A1 (Asteroid Therapeutics, priority 2022, published 2023).
pEC50, pIC50: −log10 of the molar value.

Molecular target: SREBP-2 (Homo sapiens (Human), UniProt Q12772)
Assay: In vitro assay SREBP-2: PathHunter U2OS SREBP-2 Nuclear Translocation Cell Line, U18666A-stimulated
Type: cell-based
Details: PathHunter U2OS SREBP-2 nuclear translocation cells, U18666A 10 μM, overnight (16 hours)

Structure (SMILES)	pIC50
Cc1ncccc1O[C@@H](C)[C@H]1CC[C@H]2[C@@H]3CC=C4C[C@@H](O)CC[C@]4(C)[C@H]3CC[C@]12C [Example 430, (1S,3aS,3bS,7S,9aR,9bS,11aS)-9a,11a-dimethyl-1-[(1S)-1-[(2-methylpyridin-3-yl)oxy]ethyl]-1H,2H,3H,3aH,3bH,4H,6H,7H,8H,9H,9aH,9bH,10H,11H,11aH-cyclopenta[a]phenanthren-7-ol]	6.00 to 6.60
CNC(=O)c1ccc(O[C@@H](C)[C@H]2CC[C@H]3[C@@H]4CC=C5C[C@@H](O)CC[C@]5(C)[C@H]4CC[C@]23C)cn1 [Example 438, 5-((S)-1-((3S,8S,9S,10R,13S,14S,17S)-3-hydroxy-10,13-dimethyl-2,3,4,7,8,9,10,11,12,13,14,15,16,17-tetradecahydro-1H-cyclopenta[a]phenanthren-17-yl)ethoxy)-N-methylpicolinamide]	6.00 to 6.60
C[C@H](CCC(=O)N1CC[C@H](CO)O1)[C@H]1CC[C@H]2[C@@H]3CC=C4C[C@@H](O)CC[C@]4(C)[C@H]3CC[C@]12C [Example 43, (R)-4-((3S,8S,9S,10R,13R,14S,17R)-3-hydroxy-10,13-dimethyl-2,3,4,7,8,9,10,11,12,13,14,15,16,17-tetradecahydro-1H-cyclopenta[a]phenanthren-17-yl)-1-((R)-5-(hydroxymethyl)isoxazolidin-2-yl)pentan-1-one]	6.00 to 6.60
Cc1noc(C(=O)N[C@H]2CCN(C(=O)CC[C@@H](C)[C@H]3CC[C@H]4[C@@H]5CC=C6C[C@@H](O)CC[C@]6(C)[C@H]5CC[C@]34C)C2)n1 [Example 527, N—((S)-1-((R)-4-((3S,8S,9S,10R,13R,14S,17R)-3-hydroxy-10,13-dimethyl-2,3,4,7,8,9,10,11,12,13,14,15,16,17-tetradecahydro-1H-cyclopenta[a]phenanthren-17-yl)pentanoyl)pyrrolidin-3-yl)-3-methyl-1,2,4-oxadiazole-5-carboxamide]	> 6.60
C[C@H](CCC(=O)N1CCC(OC(=O)N(C)C)CC1)[C@H]1CC[C@H]2[C@@H]3CC=C4C[C@@H](O)CC[C@]4(C)[C@H]3CC[C@]12C [Example 418, 1-((R)-4-((3S,8S,9S,10R,13R,14S,17R)-3-hydroxy-10,13-dimethyl-2,3,4,7,8,9,10,11,12,13,14,15,16,17-tetradecahydro-1H-cyclopenta[a]phenanthren-17-yl)pentanoyl)piperidin-4-yl dimethylcarbamate]	5.00 to 6.00
COC(=O)NC[C@@H](C)[C@H]1CC[C@H]2[C@@H]3CC=C4C[C@@H](O)CC[C@]4(C)[C@H]3CC[C@]12C [Example 463, methyl ((S)-2-((3S,8S,9S,10R,13S,14S,17R)-3-hydroxy-10,13-dimethyl-2,3,4,7,8,9,10,11,12,13,14,15,16,17-tetradecahydro-1H-cyclopenta[a]phenanthren-17-yl)propyl)carbamate]	6.00 to 6.60
COc1cccnc1CC[C@@H](C)[C@H]1CC[C@H]2[C@@H]3CC=C4C[C@@H](O)CC[C@]4(C)[C@H]3CC[C@]12C [Example 186, (1R,3aS,3bS,7S,9aR,9bS,11aR)-1-[(2R)-4-(3-methoxypyridin-2-yl)butan-2-yl]-9a,11a-dimethyl-1H,2H,3H,3aH,3bH,4H,6H,7H,8H,9H,9aH,9bH,10H,11H,11aH-cyclopenta[a]phenanthren-7-ol]	> 6.60
C[C@H](CCC(=O)N1CCC(N(C)S(C)(=O)=O)CC1)[C@H]1CC[C@H]2[C@@H]3CC=C4C[C@@H](O)CC[C@]4(C)[C@H]3CC[C@]12C [Example 415, N-{1-[(4R)-4-[(1R,3aS,3bS,7S,9aR,9bS,11aR)-7-hydroxy-9a,11a-dimethyl-1H,2H,3H,3aH,3bH,4H,6H,7H,8H,9H,9aH,9bH,10H,11H,11aH-cyclopenta[a]phenanthren-1-yl]pentanoyl]piperidin-4-yl}-N-methylmethanesulfonamide]	6.00 to 6.60
C[C@H](CCC(=O)N1CC[C@H](NC(=O)c2ccncn2)C1)[C@H]1CC[C@H]2[C@@H]3CC=C4C[C@@H](O)CC[C@]4(C)[C@H]3CC[C@]12C [Example 528, N—((S)-1-((R)-4-((3S,8S,9S,10R,13R,14S,17R)-3-hydroxy-10,13-dimethyl-2,3,4,7,8,9,10,11,12,13,14,15,16,17-tetradecahydro-1H-cyclopenta[a]phenanthren-17-yl)pentanoyl)pyrrolidin-3-yl)pyrimidine-4-carboxamide]	> 6.60
C[C@H](CCC(=O)N(C)OCCCC(F)(F)F)[C@H]1CC[C@H]2[C@@H]3CC=C4C[C@@H](O)CC[C@]4(C)[C@H]3CC[C@]12C [Example 32, (R)-4-((3S,8S,9S,10R,13R,14S,17R)-3-hydroxy-10,13-dimethyl-2,3,4,7,8,9,10,11,12,13,14,15,16,17-tetradecahydro-1H-cyclopenta[a]phenanthren-17-yl)-N-methyl-N-(4,4,4-trifluorobutoxy)pentanamide]	6.00 to 6.60
C[C@H](Oc1cncc(CO)c1)[C@H]1CC[C@H]2[C@@H]3CC=C4C[C@@H](O)CC[C@]4(C)[C@H]3CC[C@]12C [Example 436, (3S,8S,9S,10R,13S,14S,17S)-17-((S)-1-((5-(hydroxymethyl)pyridin-3-yl)oxy)ethyl)-10,13-dim ethyl-2,3,4,7,8,9,10,11,12,13,14,15,16,17-tetradecahydro-1H-cyclopenta[a]phenanthren-3-ol]	6.00 to 6.60
C[C@H](CCC(=O)N1CCCC(c2ccncc2)C1)[C@H]1CC[C@H]2[C@@H]3CC=C4C[C@@H](O)CC[C@]4(C)[C@H]3CC[C@]12C (stereo partly drawn) [Example 346, (4R)-4-((3S,8S,9S,10R,13R,14S,17R)-3-hydroxy-10,13-dimethyl-2,3,4,7,8,9,10,11,12,13,14,15,16,17-tetradecahydro-1H-cyclopenta[a]phenanthren-17-yl)-1-(3-(pyridin-4-yl)piperidin-1-yl)pentan-1-one]	> 6.60
C[C@H](Oc1cnccc1CO)[C@H]1CC[C@H]2[C@@H]3CC=C4C[C@@H](O)CC[C@]4(C)[C@H]3CC[C@]12C [Example 437, (3S,8S,9S,10R,13S,14S,17S)-17-((S)-1-((4-(hydroxymethyl)pyridin-3-yl)oxy)ethyl)-10,13-dim ethyl-2,3,4,7,8,9,10,11,12,13,14,15,16,17-tetradecahydro-1H-cyclopenta[a]phenanthren-3-ol]	6.00 to 6.60
CC(=O)N1CCC2(C1)CN(C(=O)CC[C@@H](C)[C@H]1CC[C@H]3[C@@H]4CC=C5C[C@@H](O)CC[C@]5(C)[C@H]4CC[C@]13C)C2 [Example 327, (4R)-4-[(1R,3aS,3bS,7S,9aR,9bS,11aR)-7-hydroxy-9a,11a-dimethyl-1H,2H,3H,3aH,3bH,4H,6H,7H,8H,9H,9aH,9bH,10H,11H,11aH-cyclopenta[a]phenanthren-1-yl]-1-{6-acetyl-2,6-diazaspiro[3.4]octan-2-yl}pentan-1-one]	6.00 to 6.60
C[C@H](COc1ccc(CO)cn1)[C@H]1CC[C@H]2[C@@H]3CC=C4C[C@@H](O)CC[C@]4(C)[C@H]3CC[C@]12C [Example 259, (3S,8S,9S,10R,13S,14S,17R)-17-((S)-1-((5-(hydroxymethyl)pyridin-2-yl)oxy)propan-2-yl)-10,13-dimethyl-2,3,4,7,8,9,10,11,12,13,14,15,16,17-tetradecahydro-1H-cyclopenta[a]phenanthren-3-ol]	6.00 to 6.60
CC(=O)N1CCC(C(=O)N(C)CC[C@@H](C)[C@H]2CC[C@H]3[C@@H]4CC=C5C[C@@H](O)CC[C@]5(C)[C@H]4CC[C@]23C)CC1 [Example 408, 1-acetyl-N—((R)-3-((3S,8S,9S,10R,13R,14S,17R)-3-hydroxy-10,13-dimethyl-2,3,4,7,8,9,10,11,12,13,14,15,16,17-tetradecahydro-1H-cyclopenta[a]phenanthren-17-yl)butyl)-N-methylpiperidine-4-carboxamide]	6.00 to 6.60
CNC(=O)c1ccnc(OC[C@@H](C)[C@H]2CC[C@H]3[C@@H]4CC=C5C[C@@H](O)CC[C@]5(C)[C@H]4CC[C@]23C)c1 [Example 254, 2-((S)-2-((3S,8S,9S,10R,13S,14S,17R)-3-hydroxy-10,13-dimethyl-2,3,4,7,8,9,10,11,12,13,14,15,16,17-tetradecahydro-1H-cyclopenta[a]phenanthren-17-yl)propoxy)-N-methylisonicotinamide]	> 6.60

Molecular target: LXRβ (Homo sapiens (Human), UniProt P55055)
Assay: In vitro assay LXRβ: PathHunter NHR CHO cells, LXRβ / Steroid Receptor Co-activator Peptide enzyme fragment complementation
Type: cell-based
Details: PathHunter NHR CHO cells, full-length human LXRβ and SRCP, chemiluminescent signal; read-out: LXRβ PPI
Procedure: PathHunter NHR CHO cells stably transfected with tagged full-length human LXRβ and a nuclear fusion protein containing Steroid Receptor Co-activator Peptide (SRCP). The full-length human LXRβ was tagged with the ProLink™ component of the DiscoverX Enzyme Fragment Complementation (EFC) system and the SRCP domain is fused to the enzyme acceptor component (EA) expressed in the nucleus. Cells were seeded in a total volume of 20 μL into white walled, 384-well microplates and incubated at 37° C. overnight prior to testing. Assay media contained charcoal-dextran filtered serum to reduce the level of hormones present. Final assay vehicle concentration was 1%. […] Microplates were read following signal generation with a PerkinElmer Envision instrument for chemiluminescent signal detection.

LXRβ, sequence (P55055 whole entry, the tested form may be a part): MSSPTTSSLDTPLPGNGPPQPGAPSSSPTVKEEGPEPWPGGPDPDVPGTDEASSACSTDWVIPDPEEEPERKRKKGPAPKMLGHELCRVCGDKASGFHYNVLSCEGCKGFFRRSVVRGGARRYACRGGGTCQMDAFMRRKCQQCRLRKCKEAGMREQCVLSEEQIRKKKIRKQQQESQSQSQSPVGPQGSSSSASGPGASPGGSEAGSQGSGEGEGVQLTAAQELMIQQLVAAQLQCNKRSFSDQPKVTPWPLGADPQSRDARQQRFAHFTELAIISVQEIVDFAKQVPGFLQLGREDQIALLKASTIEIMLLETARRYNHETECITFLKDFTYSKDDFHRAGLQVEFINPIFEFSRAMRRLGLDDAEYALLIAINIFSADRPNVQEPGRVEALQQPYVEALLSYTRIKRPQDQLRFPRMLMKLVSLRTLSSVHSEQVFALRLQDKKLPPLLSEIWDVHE

Structure (SMILES)	pEC50
C[C@H](CCC(=O)N1CCC[C@@H](Oc2ccncn2)C1)[C@H]1CC[C@H]2[C@@H]3CC=C4C[C@@H](O)CC[C@]4(C)[C@H]3CC[C@]12C [Example 217, (4R)-4-[(1R,3aS,3bS,7S,9aR,9bS,11aR)-7-hydroxy-9a,11a-dimethyl-1H,2H,3H,3aH,3bH,4H,6H,7H,8H,9H,9aH,9bH,10H,11H,11aH-cyclopenta[a]phenanthren-1-yl]-1-[(3R)-3-(pyrimidin-4-yloxy)piperidin-1-yl]pentan-1-one]	< 5.00
C[C@H](CCC(=O)N1CCC(OC(F)(F)F)CC1)[C@H]1CC[C@H]2[C@@H]3CC=C4C[C@@H](O)CC[C@]4(C)[C@H]3CC[C@]12C [Example 251, (4R)-4-[(1R,3aS,3bS,7S,9aR,9bS,11aR)-7-hydroxy-9a,11a-dimethyl-1H,2H,3H,3aH,3bH,4H,6H,7H,8H,9H,9aH,9bH,10H,11H,11aH-cyclopenta[a]phenanthren-1-yl]-1-[4-(trifluoromethoxy)piperidin-1-yl]pentan-1-one]	< 5.00
COC(=O)N1CCN(C(=O)CCC[C@H]2CC[C@H]3[C@@H]4CC=C5C[C@@H](O)CC[C@]5(C)[C@H]4CC[C@]23C)CC1 [Example 283]	< 5.00
